Each structure is given as a SMILES string.

For data set [1] the following is noted: from a short literature review; cited from earlier work.
Data set [2] has as its system MG63. The data set can be described thus: Cell viability assay (MTT), in vitro screen, MG63 cells. Type of data set: cell-based, Human. The note with it: 72 h. On the procedure: Human osteosarcoma MG-63, U2OS cell lines were kind gift from David Meiri, and head and neck FaDu cell line were a kind gift of Moshe Elkabetz. These cells were incubated under standard conditions of 37° C., 5% CO2, and 95% humidity. MG-63 and U2OS cells were cultured in RPMI-1640 (Biological Industries) containing 10% fetal bovine serum, 2 mM L-Glutamine (Biological Industries) and 1% penicillin/streptomycin (Biological Industries).
5000 cells per well in 0.2 ml growth media were seeded in a 96-well plate and allowed to attach for 24 hours. After 24 hours the cells were exposed to logarithmic gradient of drugs (Gemcitabine, Sorafenib, Nilotinib, Carfilzomib, Nintedanib, Trametinib, Cabozantinib, Ponatinib, Infigratinib, Duvelisib).
Cell survival for the cell lines was assayed after 3 days from adding the drugs. For the U20S and MG-63 by adding […] (5 mg/ml) in DDW to each well. After 3 hours, the solution was removed and 200 μl of DMSO was added. For the Fadu cell line by adding 30 μl of MTT solution (5 mg/ml) in DDW to each well. After 1 hour, the solution was removed and 100 μl of DMSO was added to dissolve the formazan crystals. Cell viability was evaluated by measuring the absorbance of each well using a Synergy H1 (BioTek) plate reader at 570 nm relative to control wells.

The test system of data set [3] is Fadu cells. Type of data set: cell-based. The note with it: 72 h. On the procedure: FaDu cell line were cultured in DMEM (Biological Industries) containing 10% fetal bovine serum, 2 mM L-Glutamine (Biological Industries) and 1% penicillin/streptomycin (Biological Industries). 5000 cells per well in 0.2 ml growth media were seeded in a 96-well plate and allowed to attach for 24 hours. After 24 hours the cells were exposed to logarithmic gradient of drugs (Gemcitabine, Sorafenib, Nilotinib, Carfilzomib, Nintedanib, Trametinib, Cabozantinib, Ponatinib, Infigratinib, Duvelisib). Cell survival for the cell lines was assayed after 3 days from adding the drugs. For the U20S and MG-63 by adding […] (5 mg/ml) in DDW to each well. After 3 hours, the solution was removed and 200 μl of DMSO was added. For the Fadu cell line by adding 30 μl of MTT solution (5 mg/ml) in DDW to each well. After 1 hour, the solution was removed and 100 μl of DMSO was added to dissolve the formazan crystals. Cell viability was evaluated by measuring the absorbance of each well using a Synergy H1 (BioTek) plate reader at 570 nm relative to control wells.

In the case of `C=CC(=O)Nc1cc(Nc2nccc(-c3cn(C)c4ccccc34)n2)c(OC)cc1N(C)CCN(C)C` [osimertinib], in data set [1], the “effectiveness versus chemotherapy combination of pemetrexed and cisplatin” value is given as “more effective”.

Take `CC(C)C[C@H](NC(=O)[C@H](CCc1ccccc1)NC(=O)CN1CCOCC1)C(=O)N[C@@H](Cc1ccccc1)C(=O)N[C@@H](CC(C)C)C(=O)[C@@]1(C)CO1` [carfilzomib]: in data set [2], the “potency / growth inhibition in the in-vitro screen” value is “most potent compound”. For the same molecule, the “sensitivity of cells to free drug and nanoparticle formulation” value in data set [2] is “extremely sensitive”; in data set [3] (Fadu cells, MTT), “less sensitive”. Moreover, the cytotoxicity result in data set [2] (low nanomolar concentrations) was “more than 95%”; in data set [3] (human), 64%. Further, in data set [3] (Fadu cells, MTT), the “potency in the in-vitro screen” value is “most potent molecule”.

The record behind these values is patent US20220319656A1, “AUTOMATED LITERATURE META ANALYSIS USING HYPOTHESIS GENERATORS AND AUTOMATED SEARCH” (TECHNION RESEARCH & DEVELOPMENT FOUNDATION, priority 2019, published 2022).
